From patent publication US20180236016A1, “NEUROTRANSMITTER AND BRAIN MODULATING ORAL DELIVERY SYSTEM FOR ENHANCEMENT OF COGNITIVE FUNCTIONS AND ENERGY” (Steady Nutrition LLC, priority 2017, published 2018)

Assays:
[1] = in vivo; cited from earlier work
[2] = Sedimentation / precipitation of theobromine in the filled product; type: physicochemical; details: in the emulsions of Example 3
Method: 2000 ml of conventional water based energy drink supplements were produced by blending all ingredients below, heating to 170 F and cooling to ambient temperature. About 30 ml of each composition were filled into HDPE plastic bottles. Example 1A contained 210 mg caffeine, 460 mg taurine, 120 mg N Acetyl L-Tyrosine, 300 mg glucuronolactone/30 ml serving. The water activity was 0.95; water content was 86% and pH of 2.90. […] Products were filled into 30 ml HDPE bottles and capped.
For each formulation, 1000 g batches were made. Milk fat and cocoa butter were weighted up and pre-blended at the specified amounts, then heated up to 130 F in a processing vessel. Water, mono and diglycerides, sugar, glycerin, cocoa powder and other optional ingredients were added Caffeine, theobromine, glucuronolactone, taurine and N acetyl L-tyrosine were mixed in. The admixture was heated up to 170-180 F for about 5 minutes and then cooled to 100 F. The water activity was adjusted to 0.85 or lower by the addition of glycerin. The entire admixture was homogenized at 1,000 psi for example 3A and at to 3,000 psi for example 3B and 3C. […] Water activity readings were 0.81, 0.82 and 0.72 for example 3A, 3B and 3C respectively. The pH readings were 5.8, 5.3 and 6.7 for example 3A, 3B and 3C respectively. Viscosity readings were 110, 170 and 250 centipoise for example 3A, 3B and 3C respectively.

[3] = cited from earlier work

precipitation of theobromine [2]	Molecule	impact is felt in [1] [min]	half-life [1] [h]	water solubility [3]	fat / lipid solubility [3]
–	Cn1c(=O)c2c(ncn2C)n(C)c1=O [caffeine, reference compound]	15 to 30	–	–	–
not precipitated	Cn1cnc2c1c(=O)[nH]c(=O)n2C [theobromine]	–	7 to 12	not water soluble	–
–	Phosphatidylcholine	–	–	not water soluble	only lipid soluble
–	Phosphatidylserine [PS]	–	–	not water soluble	only lipid soluble
